Laboratory results taken from paper PMC4422330 (Bioorganic & medicinal chemistry letters, 2008).

How the values were obtained:
pfNDH2 [1] = biological target: T1, pfNDH2 (Plasmodium falciparum, UniProt Q8I302); assay: Kinetic properties of purified pfNDH2 with electron-accepting substrates; format: biochemical; conditions: in vitro, absence of membrane components
pfNDH2 [2] = biological target: T1, pfNDH2; assay: biochemical; format: biochemical; conditions: for inhibition of pfNDH2 activity (in words): purified recombinant pfNDH2, concentrations of up to 10 µM
pfDHOD = biological target: T2, pfDHOD (Plasmodium falciparum, UniProt Q08210); assay: biochemical
T2 sequence (Q08210 24-569): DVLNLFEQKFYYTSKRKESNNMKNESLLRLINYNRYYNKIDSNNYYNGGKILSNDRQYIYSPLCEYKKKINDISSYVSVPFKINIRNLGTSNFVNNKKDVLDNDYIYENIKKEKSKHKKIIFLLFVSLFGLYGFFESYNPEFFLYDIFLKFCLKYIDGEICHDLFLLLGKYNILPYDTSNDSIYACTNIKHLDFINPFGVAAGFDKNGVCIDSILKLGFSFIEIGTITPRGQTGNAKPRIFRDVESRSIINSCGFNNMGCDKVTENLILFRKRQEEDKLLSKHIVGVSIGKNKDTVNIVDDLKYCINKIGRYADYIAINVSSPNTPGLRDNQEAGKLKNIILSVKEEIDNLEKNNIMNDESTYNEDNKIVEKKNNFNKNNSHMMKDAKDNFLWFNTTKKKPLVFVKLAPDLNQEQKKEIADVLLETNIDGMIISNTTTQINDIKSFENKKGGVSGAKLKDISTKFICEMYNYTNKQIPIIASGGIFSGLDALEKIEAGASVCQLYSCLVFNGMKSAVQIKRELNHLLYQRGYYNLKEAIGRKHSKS

[3] = tested on: O=C1C=CC(=Nc2cc(Cl)c(O)c(Cl)c2)C=C1; assay: Kinetic properties of purified pfNDH2 with electron-accepting substrates; format: biochemical, Plasmodium falciparum; conditions: pH 8.0; 100.0 °C
P. falciparum DD2-scDHOD = format: cell-based, Plasmodium falciparum; conditions: drug concentration of up to 10 µM

Compound | utilization as electron acceptor substrate by pfNDH2 (in words) (pfNDH2 [1]) | IC50 (pfNDH2 [2]) [µM] | IC50 (pfDHOD) [µM] | also measured
CCCCCCCCCCC1=C(C)C(=O)C(OC)=C(OC)C1=O [CoQD] | not efficiently utilized |  |  | 
O=c1cc(-c2ccccc2)oc2ccccc12 [Flavone] |  | > 10 | > 10 | 
[Cl-].c1ccc([I+]c2ccccc2)cc1 [IDP, diphenyliodonium chloride] |  | > 10 | > 10 | inhibition of pfNDH2 activity (in words) (pfNDH2 [2]): do not inhibit
C[C@@H]1CC[C@H]2[C@@H](C)C(=O)O[C@@H]3O[C@@]4(C)CC[C@@H]1[C@]32OO4 [Artemisinin] |  | > 10 | > 10 | inhibition of pfNDH2 activity (in words) (pfNDH2 [2]): did not perturb catalysis
C=C(C)[C@H]1Cc2c(ccc3c2O[C@@H]2COc4cc(OC)c(OC)cc4[C@@H]2C3=O)O1 [Rotenone] |  | > 10 | > 10 | 
COC1=C(OC)C(=O)C(CC=C(C)C)=C(C)C1=O [CoQ1] | detectable catalysis |  |  | 
COC1=C(OC)C(=O)C(C/C=C(\C)CC/C=C(\C)CC/C=C(\C)CCC=C(C)C)=C(C)C1=O [CoQ4] | not efficiently utilized |  |  | 
COC1=C(OC)C(=O)C(C)=CC1=O [CoQ0] | detectable catalysis |  |  | 
pfNDH2 (Plasmodium falciparum 3D7) |  |  |  | Km [3]: 4.6 µM; kcat [3]: 0.0317 s⁻¹
CCCCCCCCCCCCc1cc(=O)c2ccccc2n1O [HDQ, 1-hydroxy-2-dodecyl-4(1H)quinolone] |  | > 10 |  | inhibition of pfNDH2 activity (in words) (pfNDH2 [2]): do not inhibit; proliferation of the scDHOD-expressing transgenic strain (in words) (P. falciparum DD2-scDHOD): unaffected
O=C1C(O)=C([C@H]2CC[C@H](c3ccc(Cl)cc3)CC2)C(=O)c2ccccc21 [Atovaquone] |  | > 10 | > 10 | 
